Data as given in patent US8642063B2, “Implantable medical device coatings with biodegradable elastomer and releasable taxane agent” (priority 2008, dated 2014).

Test: Solubility / elution of paclitaxel solid forms in porcine serum
Format: physicochemical
Details: 37° C.
From the text: For example, amorphous and dihydrate taxane solid forms may be readily identified and differentiated by visual appearance and elution rates. […] In addition, the presence of different solid forms of the taxane agent in a medical device coating can be identified and quantified by contacting the coating with an elution medium that selectively dissolves one solid form more readily than a second solid form. In solution with an elution medium, such as porcine serum or blood, the presence of the taxane agent can be identified, for example by using ultraviolet (UV) spectroscopy or high pressure liquid chromatography (HPLC). […] Non-solvated solid forms include amorphous or anhydrous solid forms.
The amount of taxane agent released from coating into the elution medium, and the rate of release of the taxane agent from a coating, can be measured by any suitable method that allows for measurement of the release of the taxane agent with a desired level of accuracy and precision. The taxane agent in the coating can be determined by dissolving the coating in a suitable elution medium and subsequently detecting the amount of taxane agent in the elution medium. The taxane agent dissolved in the elution medium can be detected using any suitable technique. […] This correlation involves the linear relationship between optical density (absorbance) and concentration of an absorbing species. […]

CC(=O)O[C@H]1C(=O)[C@@]2(C)[C@H]([C@H](OC(=O)c3ccccc3)[C@]3(O)C[C@H](OC(=O)[C@H](O)[C@@H](NC(=O)c4ccccc4)c4ccccc4)C(C)=C1C3(C)C)[C@]1(OC(C)=O)CO[C@@H]1C[C@@H]2O [dihydrate paclitaxel, paclitaxel]
solubility after 24 hours in porcine serum: less than 40 wt %
